Reference: US20210040116A1, “New Polymorphs of Dolutegravir Sodium” (CIPLA LIMITED, priority 2017, published 2021)

Columns and labels:
[1] = Bulk density and tapped density (USP <616> method I); format: physicochemical
Source text: Suitable methods for determining the bulk density and tapped density of the crystalline form 1A of dolutegravir sodium of the present invention and the crystalline form of dolutegravir sodium form disclosed in WO2010068253 will be well known to the skilled chemist. For example, USP <616> method I may be used.

[2] = Comparative intrinsic dissolution; format: physicochemical; conditions: 0.01M pH 6.8 phosphate buffer containing 0.25% w/v SDS, 37° C., 50 rpm
Source text: The following data illustrates the dissolution of the crystalline form of dolutegravir sodium disclosed in WO2010068253 (i.e. not the hydrate), compared to crystalline Form 1A of the present invention (i.e. crystalline Form 1A of dolutegravir sodium).
Dissolution medium: 0.01M pH 6.8 phosphate buffer containing 0.25% w/v sodium dodecyl sulfate (SDS)
FIG. 5 is a graphical comparison of the intrinsic dissolution of the solid crystalline Form 1A of dolutegravir sodium of the present invention and the crystalline form of dolutegravir sodium disclosed in WO2010068253. The solid line represents the dissolution of solid crystalline Form 1A of dolutegravir sodium of the present invention, with the dotted line representing the dissolution of the crystalline form of dolutegravir sodium disclosed in WO2010068253.

Compound	bulk density [1] [g/mL]	% Release ([2]; 5 minutes) [%]	% Release ([2]; 15 minutes) [%]	% Release ([2]; 30 minutes) [%]	% Release ([2]; 60 minutes) [%]	% Release ([2]; 120 minutes) [%]	% Release ([2]; 240 minutes) [%]	% Release ([2]; 360 minutes) [%]	% Release ([2]; 480 minutes) [%]	% Release ([2]; 600 minutes) [%]	% Release ([2]; 720 minutes) [%]	tapped density [1] [g/mL]
C[C@@H]1CCO[C@H]2Cn3cc(C(=O)NCc4ccc(F)cc4F)c(=O)c([O-])c3C(=O)N12.[Na+] [crystalline form of dolutegravir sodium disclosed in WO20100] [sodium (4R,12aS)-9-{[(2,4,-difluorophenyl)methyl]carbamoyl}-4-methyl-6,8-dioxo-3,4,6,8,12,12a-hexahydro-2H-pyrido[1′,2′:4,5]pyrazino[2,1-b][1,3]oxazin-7-olate]	0.2 to 0.3	5	13	20	56	68	74	72	73	73	74	
C[C@@H]1CCO[C@H]2Cn3cc(C(=O)NCc4ccc(F)cc4F)c(=O)c([O-])c3C(=O)N12.[Na+] [Form 1A, sodium (4R,12aS)-9-{[(2,4,-difluorophenyl)methyl]carbamoyl}-4-methyl-6,8-dioxo-3,4,6,8,12,12a-hexahydro-2H-pyrido[1′,2′:4,5]pyrazino[2,1-b][1,3]oxazin-7-olate]		26	45	73	66	79	82	81	85	86	82	0.7 to 0.8
